In patent US10543178B2, “Dosage forms and related therapies” (PhilERA New Zealand Limited, priority 2002, dated 2020):
Several values for one entry are separate records, joined by “and”; a condition that tells them apart may be missing. Identical values can stand only once. Like-named read-outs stand apart in the source and are kept apart here.

What was measured:
[1] = From the text: All animals were fasted overnight prior to surgery but continued to have ad libitum access to deionized water. […] The femoral artery and vein were cannulated with a solid-state blood pressure transducer (Mikrotip™ 1.4F, Millar Instruments, Texas, USA) and a saline filled PE 50 catheter respectively. The ureters were exposed via a midline abdominal incision, cannulated using polyethylene catheters (external diameter 0.9 mm, internal diameter 0.5 mm) and the wound sutured closed. The trachea was cannulated and the animal ventilated at 70-80 breaths·min^−1 with air supplemented with 02 (Pressure Controlled Ventilator, Kent Scientific, Connecticut, USA). The respiratory rate and end-tidal pressure (10-15 cmH2O) were adjusted to maintain end-tidal CO2 at 35-40 mmHg (SC-300 CO2 Monitor, Pryon Corporation, Wisconsin, USA). Body temperature was maintained at 37° C. throughout surgery and the experiment by a heating pad. Estimated fluid loss was replaced with intravenous administration of 154 mmol·l^−1 NaCl solution at a rate of 5 ml·kg^−1·h^−1.
(§1) Following surgery and a 20 min stabilization period, the experimental protocol was started. […] Control animals received an equivalent volume of saline. Urine was collected in 15 min aliquots throughout the experiment in pre-weighed polyethylene epindorf tubes. At the end of the experiment a terminal blood sample was taken by cardiac puncture and the separated serum stored at −80° C. until future analysis. Hearts were removed through a rapid mid-sternal thoracotomy and processed as described below.
Urine and tissue analysis was carried out as follows. Instrumentation: A Perkin Elmer (PE) Model 3100 Atomic Absorption Spectrophotometer equipped with a PE HGA-600 Graphite Furnace and PE AS-60 Furnace Autosampler was used for Cu and Fe determinations in urine. Deuterium background correction was employed. A Cu or Fe hollow-cathode lamp (Perkin Elmer Corporation) was used and operated at either […]. The 324.8 nm atomic line was used for Cu and the 248.3 nm atomic line for Fe. The slit width for both Cu and Fe was 0.7 nm. Pyrolytically coated graphite tubes were used for all analyses. The injection volume was 20 μL. A typical graphite furnace temperature program is shown below:
Urine: Urine was collected in pre-weighed 1.5 ml micro test tubes (eppendorf). After reweighing, the urine specimens were centrifuged and the supernatant diluted 25:1 with 0.02 M 69% Aristar grade HNO3. The sample was stored at 4° C. prior to GF-AAS analysis. If it was necessary to store a sample for a period in excess of 2 weeks, it was frozen and kept at −20° C. Serum: Terminal blood samples were centrifuged and serum treated and stored as per urine until analysis. From the trace metal content of serum from the terminal blood sample and urine collected over the final hour of the experiment, renal clearance was calculated using the following equation: […]
Statistical analyses were carried out as follows. All values are expressed as mean±SEM and P values <0.05 were considered statistically significant. Student's unpaired t-test was initially used to test for weight and glucose differences between the diabetic and control groups. For comparison of responses during drug exposure, statistical analyses were performed using analysis of variance (Statistics for Windows v.6.1, SAS Institute Inc., California, USA). Subsequent statistical analysis was performed using a mixed model repeated measures ANOVA design (see Example 4).

[2] = remark: listed apart in the source
Procedure: as §1
Mean arterial pressure (MAP), heart rate (HR, derived from the MAP waveform) oxygen saturation (Nonin 8600V Pulse Oximeter, Nonin Medical Inc., Minnesota, USA) and core body temperature, were all continuously monitored throughout the experiment using a PowerLab/16s data acquisition module (AD Instruments, Australia).
Following surgery and a 20 min stabilization period, the experimental protocol was started. […] Urine was collected throughout the experiment in 15 min aliquots.

[3] = normal and diabetic rats, acute i.v. increasing doses
Procedure: Methods were carried out as follows. Spectrophotometric analysis was conducted as described in Example 2. Cu, Fe and Zn in tissue digests were determined at Hill Laboratories (Hamilton, New Zealand) using either a PE Sciex Elan-6000 or PE Sciex Elan-6100 DRC ICP-MS.
Sample pre-treatment was carried out as follows. Heart: Following removal from the animal, the heart was cleaned of excess tissue, rinsed in buffer to remove excess blood, blotted dry and a wet ventricular weight recorded. Using titanium instruments a segment of left ventricular muscle was dissected and placed in a pre-weighed 5.0 ml polystyrene tube. The sample was freeze-dried overnight to constant weight before 0.45 ml of 69% Aristar grade HNO3 was added. The sample tube was heated in a water bath at 65° C. for 60 minutes. The sample was brought to 4.5 ml with Milli-Q H2O. The resulting solution was diluted 2:1 in order to reduce the HNO3 concentration below the maximum permitted for ICP-MS analysis.

[4] = T2DM and controls
Procedure: Total metal balance studies were performed in a residential metabolic unit. Total fecal outputs were collected daily for 12 days, freeze dried, and analyzed by ICP-MS for content of Cu, Fe, Zn, Ca, Mg, Mn, Cr, […] and Se.

[5] = 0.67-670 mg/ml in 0.9% saline, four months at 4° C.
Procedure: The concentrations of the stock formulations were: 0.67 mg/ml, 6.7 mg/ml, 67 mg/ml, and 670 mg/ml. The formulation was then administered to the rats in doses of 0.1 mg/kg, 1 mg/kg, 10 mg/kg, and 100 mg/kg to the animals respectively.

[6] = 15 days
Procedure: One sample of the solution was stored in the dark at 4° C. and 21° C. in the dark and a third sample was stored at 21° C. in daylight.
The Ultraviolet-visible spectrum of the formulation was initially measured at day 0 and then at day 15. 20 μl aliquots of sample solutions were taken at day 15. For each aliquot 960 μl of 50 mM TRIS buffer and 20p aliquot of Copper Nitrate standard (100 mM—Orion Research Inc) were added.

[7] = cited from earlier work
humans with T2DM = assay: 6-month randomized double-blind placebo-controlled trial of oral trientine, LV mass by cardiac MRI; settings: 6 months' trientine therapy
Excerpt: Subjects (30-70 y) who provided written informed consent were eligible for inclusion if they had: T2DM with HbAu1c>7%; cardiac ejection fraction (echocardiography) ≥45% with evidence of diastolic dysfunction but no regional wall-motion anomalies; no new medications for more than 6 months with no change of β-blocker dose; normal electrocardiogram (sinus rhythm, normal PR Interval, normal T wave and QRS configuration, and isoelectric ST segment); and greater than 90% compliance with single-blinded placebo therapy during a 2-w run-in period. Women were required to be post-menopausal, surgically sterile, or non-lactating and non-pregnant and using adequate contraception.
Before randomization, potentially eligible subjects entered a 4-w single blind run-in phase of two placebo-capsules twice-daily and underwent screening echocardiography, being excluded if regional wall motion abnormalities or impaired LV systolic function (ejection fraction <50%) were detected. In addition, LV diastolic filling was assessed using mitral inflow Doppler (with pre-load reduction) to ensure patients had abnormalities of diastolic filling; no patient with normal mitral filling proceeded to randomisation. […]
At baseline and following 6 months' treatment, LV mass was determined using cardiac MRI, performed in the supine position with the same 1.5 T scanner (Siemens Vision) using a phased array surface coil. […]

NCCNCCNCCN [trientine, N,N′-Bis(2-aminoethyl)-1,2-ethanediamine]
Iron excretion versus equivalent volume of saline ([1]; diabetic and nondiabetic rats): not greater
Total iron excretion versus saline ([1]; diabetic and nondiabetic rats): not different
Urinary Cu excretion versus equivalent volume of saline ([1]; diabetic and nondiabetic rats, all doses 0.1-100 mg/kg i.v.): excreted more Cu
Cu excretion in the urine versus saline ([1]; diabetic rats, 0.1 mg·kg^−1 i.v. (lowest dose)): significantly increased
Copper excretion per gram of body weight, diabetic versus nondiabetic animals ([1]; in response to each dose of drug): significantly greater
Total copper excreted over the entire duration of the experiment versus saline controls ([1]; nondiabetic and diabetic rats): significantly increased
Urine excretion versus equivalent volume of saline ([1]; nondiabetic rats, 100 mg·kg^−1 i.v.): increased
Form of urinary Cu by electron paramagnetic resonance spectroscopy ([1]; urine of drug-treated animals): mainly complexed as trientine-Cu^II
Time to recovery from blood pressure fall ([2]; 100 mg/kg i.v.): 10 min
Effect on blood pressure ([2]; acute i.v. 0.1, 1, 10 and 100 mg/kg): no significant effect
Effect of infusion on MAP and HR ([2]; doses below the highest dose): no effect
Time for MAP to return to pre-dose levels ([2]; highest dose 100 mg/kg i.v.): ≤ 10 min
Maximum decrease in MAP (blood pressure fall) ([2]; highest dose 100 mg/kg i.v., 2 min following administration, 100 mg/kg): 19±4 mmHg and 19+/−4 mmHg
Effect on the copper content of cardiac tissue [3]: no significant effect
Effect on fecal outputs of Zn, Fe, Ca, Mg, Mn, Cr, Mb or Se [4]: Neither diabetes nor drug had measurable effects
Stability on storage (efficacy as copper chelator) [5]: remains active as a copper chelator
Stability on storage (efficacy as copper chelator) ([5]; listed as trientine hydrochloride): without appreciable deterioration in efficacy
Change in ability to chelate copper on storage ([6]; 100 mM in deionized water, 4° C. dark, 21° C. dark, 21° C. daylight): no detectable change
Effect of room light on copper chelation ([6]; 100 mM solution, 21° C. in daylight): no detectable detrimental effect
Bioavailability of the active species after oral administration [7]: < 10%
Drug-related adverse events (humans with T2DM): No significant drug-related adverse events
